Legend:
[1] = system: BHK-21 cells (mitochondrial movements); assay: Nocodazole treatment, time-lapse live imaging of BHK-21 cells with MitoTracker dye and WFA-Verde; type: cell-based, hamster; settings: 10 μM Nocodazole
Description: BHK-21 cells were cultured in glass bottom plates and treated with MitoTracker® dye alone or separately with 10 μM Nocodazole. […] Time-lapse images were collected every 5 seconds in each of the four treatment groups.

[2] = target: T1, vimentin (Muller glial filaments) (Mus musculus, UniProt P20152); assay: In vivo delivery of probe to non injured mice, retina cryosections; settings: 1 μM intraperitoneal, eyes enucleated after 24 h, FITC channel
T1 construct: from tissue; host or cells: mouse retina (in vivo, cryosections)
Text: Cryosections of the eye were subjected to fixation and subsequently stained with anti-vimentin antibody (V9) to mark Muller glial filaments.

[3] = system: mCherry-vimentin (soluble vimentin); assay: Live cell target detection in BHK-21 cells transfected with pmCherry-vimentin-N-18; type: cell-based, hamster; settings: 250 nM, 5 min, early spreading cells
Text: Soluble vimentin is a broad definition for the biochemical properties of vimentin forms that are extracted in low salt buffers (composed of tetramers, short oligomers, unit length filaments etc.). As such, these soluble vimentin forms are more dynamic structures. We employed a genetic approach to introduce a hybrid mCherry-vimentin construct to express vimentin as a fusion protein with the red fluorescent protein mCherry.
BHK-21 cells were transiently transfected with pmCherry-vimentin-N-18 plasmid (Adgene, MA) using lipofectamine, according to vendor instructions. Cells were trypsinized and replated in glass bottom culture plates (MatTek, MA) for 1 h in complete DMEM medium. […] Cells were immediately imaged live by epifluorescence microscopy, without fixation. […] Asterisks mark the position of the nucleus.

soluble vimentin = target: T2, soluble vimentin (Mesocricetus auratus, UniProt P02544); assay: Dynamic movement of vimentin structures, live imaging of BHK-21 cells; type: cell-based, hamster; settings: 250 nM, 5 min, SF medium, images at 5 sec intervals
T2 construct: BHK-21 cells were plated in glass bottom culture plates for 18 h to promote spreading; endogenous in cells; host or cells: BHK-21

[4] = system: human vimentin-cherry hybrid; assay: Time-lapse imaging of BHK-21 cells expressing polymerized mCherry-vimentin; type: cell-based, hamster; settings: 250 nM, 5 minutes, serum-free medium, BHK-21 cells with mCherry-vimentin, replated 18 h
Description: Transfection of human vimentin-cherry hybrid plasmid into fibroblasts and examination of polymerized vimentin structures under live cell imaging experiments identify numerous vimentin filaments that show some common, and yet, other distinct staining from the WFA-Verde-labeled structures. BHK-21 cells were transiently transfected with pmCherry-Vimentin-N-18 plasmid (Adgene, MA) using lipofectamine. Cells were cultured to establish the expression of plasmid and then trypsinzed and replated in glass culture plates for 18 h. […] Images at the starting point (T1), mid-point (T2) and at end of 3 minutes (T3).

vimentin and GFAP = settings: laser injured mice, day 7, 1 μM intraperitoneal, sacrificed 24 h later
Description: Mice of both sexes were anesthetized and subjected to 4 equally spaced laser burns focused on the retinal pigment epithelium (RPE). Using the Meridian laser attached to Micron III retinal fundus microscope (Phoenix Research labs) we used strong injury (150 mW with 50 msec pulse) to promote retinal gliosis with CNV.
The mouse imaging system (Micron III, Phoenix Research Labs, CA) provided with an image-guided Meridian Merilas 532 nm (Nd:YVO) laser was employed. Using the Diode laser 625-645 nm as an aiming beam the continuous wave, KTP frequency doubled Nd:YVO 532 nm laser was employed to deliver laser injuries in anesthetized mice. Here four (150 mW; 10-μm diameter, 50 msec duration) laser shots equally spaced around the optic nerve were delivered to disrupt the RPE. […] Mice were sacrificed 24 h later and eyes enucleated for tissue sectioning and antibody staining to vimentin and GFAP.

[5] = target: T3, vimentin associated with mitochondria (Mesocricetus auratus, UniProt P02544); assay: Co-staining with MitoTracker dye in live BHK-21 cells; type: cell-based, hamster; settings: 250 nM, 5 mins, serum-free medium
T3 construct: endogenous in cells; host or cells: BHK-21
Description: BHK-21 cells were plated overnight and prior to staining placed in serum-free medium. […] Cells were washed and directly imaged live at dual wavelengths.

[6] = system: vimentin (p-Ser38Vimentin)
Text: Cells were fixed, permeabilized, and prepared for immunohystochemistry (IHC) analysis.

[7] = target: T4, soluble vimentin species bound to motile mitochondrial species (Mesocricetus auratus, UniProt P02544); assay: Motility quantification of WFA-Verde-labeled particles in BHK-21 cells (FIJI/Image J); type: cell-based, hamster; settings: 250 nM, images at 5 sec intervals
T4 construct: BHK-21 cells were plated in glass bottom culture plates for 18 h to promote spreading; endogenous in cells; host or cells: BHK-21

[8] = target: vimentin in corneal myofibroblasts (Mus musculus, UniProt P20152)
Description: Alkali injury to the cornea causes blindness due to the development of corneal fibrosis from overexpression of IF proteins in resident myofibroblasts. This model is extensively employed to investigate corneal fibrosis and role of IF proteins.
Thus, anesthetized mice were injured with alkali by application of 0.15N NaOH for 1 min to the cornea, eyes was extensively and the corneal epithelium gently removed. During the process of wound healing the resident keratocytes become activated into wound fibroblasts and subsequently into myofibroblasts to overexpress both vimentin and desmin, the two type III IFs in the cornea. Thus, heightened expression of these IF targets compared to uninjured corneas, the latter expressing very low levels of vimentin and no desmin, provided the rationale to compare uninjured mice. […] Mice were sacrificed after 1 h, eyes enucleated and cryosections were obtained.

Sequence of vimentin in corneal myofibroblasts (P20152 2-466 limits assumed): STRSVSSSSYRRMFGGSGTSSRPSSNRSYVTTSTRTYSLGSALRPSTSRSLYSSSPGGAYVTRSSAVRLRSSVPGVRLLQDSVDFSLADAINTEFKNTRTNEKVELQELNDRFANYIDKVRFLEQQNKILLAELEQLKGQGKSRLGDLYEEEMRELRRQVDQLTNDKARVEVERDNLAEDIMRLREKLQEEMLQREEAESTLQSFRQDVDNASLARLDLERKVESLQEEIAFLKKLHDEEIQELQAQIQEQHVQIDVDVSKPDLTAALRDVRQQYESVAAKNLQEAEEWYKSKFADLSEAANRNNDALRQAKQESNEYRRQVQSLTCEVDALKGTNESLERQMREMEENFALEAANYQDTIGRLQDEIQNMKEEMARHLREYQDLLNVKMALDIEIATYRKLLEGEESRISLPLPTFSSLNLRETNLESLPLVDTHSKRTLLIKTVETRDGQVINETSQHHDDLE
Sequence of mCherry-vimentin (soluble vimentin) (P08670 2-466 limits assumed): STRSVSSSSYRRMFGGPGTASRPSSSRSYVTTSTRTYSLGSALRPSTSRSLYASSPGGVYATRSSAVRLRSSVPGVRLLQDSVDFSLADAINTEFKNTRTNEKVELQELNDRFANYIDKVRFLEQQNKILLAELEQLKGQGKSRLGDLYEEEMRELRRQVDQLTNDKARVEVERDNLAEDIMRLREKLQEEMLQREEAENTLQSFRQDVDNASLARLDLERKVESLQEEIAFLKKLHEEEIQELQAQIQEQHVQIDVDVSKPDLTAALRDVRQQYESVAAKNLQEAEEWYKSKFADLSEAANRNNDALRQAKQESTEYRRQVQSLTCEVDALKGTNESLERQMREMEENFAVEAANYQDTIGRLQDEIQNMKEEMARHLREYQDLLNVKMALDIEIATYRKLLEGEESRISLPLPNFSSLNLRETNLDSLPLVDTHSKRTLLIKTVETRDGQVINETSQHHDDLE
Sequence of human vimentin-cherry hybrid (P08670 2-466 limits assumed): as above
T2 sequence (P02544 2-465 limits assumed): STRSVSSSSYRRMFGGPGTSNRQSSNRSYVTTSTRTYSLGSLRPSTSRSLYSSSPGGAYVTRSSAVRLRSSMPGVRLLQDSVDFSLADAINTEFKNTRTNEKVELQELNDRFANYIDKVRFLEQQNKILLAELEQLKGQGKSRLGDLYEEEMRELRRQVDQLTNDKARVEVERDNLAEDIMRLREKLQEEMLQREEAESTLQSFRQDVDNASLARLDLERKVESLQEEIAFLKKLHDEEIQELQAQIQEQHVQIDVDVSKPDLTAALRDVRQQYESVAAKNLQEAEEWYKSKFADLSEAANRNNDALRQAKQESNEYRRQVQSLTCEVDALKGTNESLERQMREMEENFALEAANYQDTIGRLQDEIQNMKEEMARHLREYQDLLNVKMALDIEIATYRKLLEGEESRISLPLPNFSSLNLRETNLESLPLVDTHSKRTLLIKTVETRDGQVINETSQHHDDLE
T4 sequence (P02544 2-465 limits assumed): as above
T3 sequence (P02544 2-465 limits assumed): as above
T1 sequence (P20152 2-466 limits assumed): as the sequence (P20152 2-466 limits assumed) above

| speed of WFA-Verde labeled dot-like structure (soluble vimentin) [μm/sec] | overlap of probe-stained vimentin structures with MitoTracker dye [5] | rate of movement of majority of motile WFA-Verde-labeled particles [7] [micrometer/second] | metabolic conversion in vivo ([8]; mouse, in vivo, ip) | time to reach the target organ after systemic delivery ([8]; mouse, in vivo, ip) [h] | Molecule | effect on movement of filaments ([1]; time-lapse every 5 seconds) | incorporation of probe into vimentin in non-gliotic retina [2] | co-localization with Vim-Cherry [3] | staining of vimentin structures at low dose [4] | labeling of Muller glia at laser lesion (vimentin and GFAP) | labeling of vimentin structures in cell cytoplasm ([6]; 3.5 μM, 1 h, rabbit corneal fibroblast cells) | co-localization of probe with p-Ser38Vimentin ([6]; 3.5 μM, 1 h, rabbit corneal fibroblast cells, fixed, anti-pSer38Vimentin antibody) | effect on cytoskeleton ([6]; short exposure to higher dose (3.5 μM, 1 h), well spread cells) | overlap of WFA-Verde and MitoTracker staining under nocodazole [1] | overlap between vimentin antibody staining and probe binding ([8]; alkali injured corneas, majority of labeled cells) | probe staining of corneas from injured eyes ([8]; alkali injured mice, day 14, intraperitoneal, sacrificed after 1 h) | probe staining of non-injured corneas ([8]; non-injured mice, intraperitoneal, sacrificed after 1 h, corneal stroma) |
| --- | --- | --- | --- | --- | --- | --- | --- | --- | --- | --- | --- | --- | --- | --- | --- | --- | --- |
| – | – | – | – | – | COC(=O)Nc1nc2ccc(C(=O)c3cccs3)cc2[nH]1 [Nocodazole, nocodazole, reference compound] | causes filaments to be arrested in movements | – | – | – | – | – | – | – | – | – | – | – |
| ~0.5 | extensive overlap | ~0.01 | likely also not metabolically converted | ≤ 1 | Withaferin A-BODIPY-FL [WFA-Verde] | – | minimal incorporation | shows co-localization with Vim-Cherry | does not stain to all vimentin structures | labeled the Muller glia extensively | does label both soluble and vimentin structures throughout the cell cytoplasm | extensive co-localization | did not dramatically alter the cytoskeleton | extensive overlap | extensive overlap | abundance of WFA-Verde binding to corneal myofibroblasts | very low level of background staining |
| – | – | – | – | – | CC1=C(COC(=O)CNC(=O)CCCCCNC(=O)COc2ccc(C3=[N+]4C(=Cc5ccc(-c6cccs6)n5[B-]4(F)F)C=C3)cc2)C(=O)OC(C(C)C2CCC3C4CC5OC56C(O)C=CC(=O)C6(C)C4CCC23C)C1 (stereo not drawn) [WFA-Rosa, Withaferin A-BODIPY-TR-X] | – | – | – | – | showed a similar pattern illuminating Muller glia | – | – | – | – | – | – | – |

Reference: patent US10690683B2, “Methods of use for intermediate filament protein probes” (University of Connecticut, priority 2016, dated 2020)
